# Measured values as given in PMC7139703, “Thiopurine Derivative-Induced Fpg/Nei DNA Glycosylase Inhibition: Structural, Dynamic and Functional Insights” (International Journal of Molecular Sciences, 2020).
# Where two headings read alike, the source gives them in different places.
# Experiments:
# [1] = molecular target: T1, hNeil1 (Homo sapiens, UniProt Q96FI4); assay: EMSA, hNeil1 DNA binding to THF-containing DNA duplex; conditions: Figure 4
# Target sequence in this assay (Q96FI4 2-290 limits assumed): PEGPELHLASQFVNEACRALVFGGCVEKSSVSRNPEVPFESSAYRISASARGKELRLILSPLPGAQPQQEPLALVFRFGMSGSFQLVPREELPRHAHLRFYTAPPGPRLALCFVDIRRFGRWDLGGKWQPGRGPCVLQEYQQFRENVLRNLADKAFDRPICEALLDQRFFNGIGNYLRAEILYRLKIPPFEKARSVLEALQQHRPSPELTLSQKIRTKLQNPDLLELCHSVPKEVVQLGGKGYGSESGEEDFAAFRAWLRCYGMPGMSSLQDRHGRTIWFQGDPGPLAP
# [2] = molecular target: T1, hNeil1; assay: hNeil1 DNA glycosylase/AP lyase activity assay on DHU:G 24-mer duplex; assay type: biochemical; set-up: Overproduction was performed as described above for full length hNeil1; 6His (C); made in house; host or cells: E. coli Rosetta2 (DE3); conditions: for inhibition of hNeil1 by homogeneous disulfide forms: Figure 6d
# Protocol: (§1) Figure 4 Comparative analysis of the effect of 2TX and TXn on Fpg/Nei DNA glycosylases. Enzyme activities were measured as described in the Figure 1 legend using […] of a 5′-[^32P]-24-mer DNA duplex containing either an 8-oxoG opposite C for LlFpg or a […] (DHU) opposite G for hNeil1 and mvNei1. The DNA probe was incubated with the indicated protein concentration and 0.2 mM TXn compounds in the presence or absence of 1 mM dithiothreitol (DTT) and TCEP (a representative experiment is illustrated by the upper histograms). The DNA probe for EMSA was 0.1 nM of 5′-[^32P]-24-mer DNA duplex containing THF with LlFpg and mvNei1 (bottom panels: gel autoradiography) with the indicated conditions and as described in ‘Materials and Methods’.
# (§2) Fpg, hNeil1 and mvNei1 are bifunctional DNA glycosylases associated with concerted DNA glycosylase activity (cleavage of the N-glycosidic bond between the base lesion and the C1′ of the deoxyribose) and AP lyase activity that comprises the successive cleavage of the phosphodiester bonds at the 3′ and 5′ of the resulting abasic (AP) site, respectively (β, δ-elimination). Thus, AP sites that result from the excision of the damaged base are quantitatively converted into one nucleoside gap by these enzymes. The DNA glycosylase/AP lyase activity of each enzyme was measured by incubating 20 nM of 24-mer DNA duplexes ([OG:C] and [DHU:G] for Fpg and hNeil1/mvNei1, respectively) 5′-labeling on the damaged strand (see above) with 2 nM of Fpg, or mvNei1 for 15 min or, with 20 nM of hNeil1 for 30 min at 37 °C in 10 mM Tris-HCl, pH 7.6, 150 mM NaCl, 1 mM EDTA, 0.1 mg/mL BSA and 8% DMSO. The reaction was stopped by the addition of 1 volume of formamide loading buffer (96% formamide, 20 mM Tris/HCl pH 8.0 and 2 mM Na2EDTA), heated at 80 °C for 2 min and then analyzed by 20% Urea-PAGE, as previously described. […] Under these conditions, only 50% of the substrate is converted to the cleavage product (limiting enzyme concentration conditions). For an initial evaluation of the inhibitory effect, 40 µM of 2TX/TXn was used. The thio-compound was added to the reaction mixture before the final addition of the enzyme (competition condition). For the best identified inhibitors, a dose-response curve was generated and IC50^A determined (Figure 1 and Table 1).
# Target sequence in this assay (Q96FI4 whole entry): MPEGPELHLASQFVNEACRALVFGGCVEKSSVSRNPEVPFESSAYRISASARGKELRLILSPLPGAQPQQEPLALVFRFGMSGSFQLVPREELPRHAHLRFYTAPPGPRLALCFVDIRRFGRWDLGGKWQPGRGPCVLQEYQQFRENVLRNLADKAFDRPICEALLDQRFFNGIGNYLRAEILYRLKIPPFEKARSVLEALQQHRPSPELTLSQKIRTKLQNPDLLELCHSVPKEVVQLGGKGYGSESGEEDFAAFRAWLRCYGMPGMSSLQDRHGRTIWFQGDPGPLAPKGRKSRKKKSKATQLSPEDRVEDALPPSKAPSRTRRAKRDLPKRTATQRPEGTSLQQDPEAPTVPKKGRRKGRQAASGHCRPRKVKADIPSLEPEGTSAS
# [3] = molecular target: T2, mvNei1 (Acanthamoeba polyphaga mimivirus, UniProt Q5UQ00); assay: mvNei1 DNA glycosylase/AP lyase activity assay on DHU:G 24-mer duplex; assay type: biochemical; conditions: for inhibition of mvNei1 by homogeneous disulfide forms: Figure 6d
# T2 construct: 6His (C); made in house; host or cells: E. coli Rosetta2 (DE3)
# T2 sequence (Q5UQ00 whole entry): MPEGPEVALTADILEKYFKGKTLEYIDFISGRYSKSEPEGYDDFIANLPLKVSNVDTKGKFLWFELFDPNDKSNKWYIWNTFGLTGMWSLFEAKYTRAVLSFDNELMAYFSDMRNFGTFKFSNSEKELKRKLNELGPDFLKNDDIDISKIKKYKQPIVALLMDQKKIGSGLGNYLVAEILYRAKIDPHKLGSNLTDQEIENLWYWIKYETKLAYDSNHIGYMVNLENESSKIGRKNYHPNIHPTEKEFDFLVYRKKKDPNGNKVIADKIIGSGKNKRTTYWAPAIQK
# Protocol: as §1, §2
# [4] = molecular target: T3, LlFpg (Lactococcus lactis subsp. cremoris, UniProt P42371); assay: LlFpg 8-oxoG-DNA glycosylase/AP lyase activity assay (Urea-PAGE radioassay); assay type: biochemical; conditions: for inhibition of Fpg catalytic activity by reduced forms: 400 µM, homogeneous reduced form
# T3 construct: made in house; host or cells: E. coli BH540 (fpg defective)
# Protocol: Figure 1 Effect of 2-thioxanthine (2TX)-derivatives on Fpg activity. A total of 20 nM of 5′-[^32P]-8-oxoG-containing 24-bp DNA duplex (labeled on the damaged strand) was incubated with 2 nM of LlFpg alone (dimethyl sulfoxide (DMSO) control) or with the indicated 2TX and 2TX-derivatives (TXn) concentrations, as described in the “Materials and Methods” section. (a) Screening of TXn for Fpg inhibition. Averages and standard deviations were obtained from at least three independent experiments. Mono- and di-thiolated compounds are highlighted in red and blue, respectively. (b) Dose-response curves for best inhibitors. Each data point represents the mean value obtained from at least three independent measurements.
# as §2
# [5] = molecular target: T2, mvNei1; assay: EMSA, mvNei1 DNA binding to THF-containing DNA duplex; conditions: Figure 4
# Protocol: as §1, with “The DNA probe for EMSA was 0.1 nM of 5′-[^32P]-24-mer DNA duplex containing THF with LlFpg and mvNei1 (bottom panels: gel autoradiography) with the indicated conditions and as described in ‘Materials and Methods’.” left out
# The DNA binding activity was measured using EMSA [37]. […] After electrophoresis, the gels were dried and exposed overnight for autoradiography using a Typhoon imager and quantified with ImageQuant software. To evaluate the inhibitor effect of 2TX/TXn on the DNA binding activity of each Fpg/Nei enzyme, we first determined the experimental conditions required to bind 50% of the DNA probes without an inhibitor in the presence of 8% DMSO (limiting enzyme concentration). […] This effect was determined by the addition of the thio-compound in the pre-equilibrium mixture of the enzyme and DNA probe (30 min) and incubated for an additional 30 min at 4 °C. For the best inhibitors of Fpg, a dose-response curve was established from at least three independent experiments and the IC50 was determined (IC50^B, Table 1).
# [6] = molecular target: T4, LlFpg/DNA complex C1 (Lactococcus lactis subsp. cremoris, UniProt P42371); assay: EMSA, Fpg DNA binding to 14-mer [THF:C] duplex, complex C1 (lesion recognition complex, Fpg/DNA 1/1); conditions: homogeneous reduced or disulfide form in 50 mM sodium phosphate; 14-mer [THF:C]; read-out: IC50^B (Fpg DNA binding), homogeneous redox forms
# T4 construct: made in house; host or cells: E. coli BH540 (fpg defective)
# Source text: (§3) To complement this study, we examined the effect of TXn on the binding of Fpg to a short DNA duplex containing a tetrahydrofuran (THF), a non-cleavable AP site analog. The enzyme specifically recognizes THF and forms a stable abortive complex with DNA [18, 34, 35, 36]. […] A representative titration experiment (with and without TCEP) of the 14-mer [THF:C] Fpg formed two stable complexes with this short DNA probe that were easily observed by EMSA: a high-affinity complex C1 corresponding to the lesion recognition complex (LRC), with nanomolar affinity, and a complex C2 only observed at higher Fpg concentrations. C2 results in C1 titration by a second Fpg molecule. This finding illustrates that the crystal structure of Fpg bound to 8-oxoG-carbanucleotide-containing DNA [38] (Figure S5). The stability of each preformed complex was then examined by EMSA in the presence of 2TX or TXn. […] The enzyme inactivation mediated by 2TX through ZnF oxidation that directly affects the DNA binding properties of the enzyme is also in agreement with this last observation.
# Figure 2 The effect of 2TX and TXn on Fpg DNA binding to abasic site-containing DNA. A 14-mer DNA duplex containing a tetrahydrofurane (THF) site as an abasic site analog was incubated with a limiting Fpg concentration (0.25 nM) with and without increasing concentrations of TXn. Incubation mixtures were then analyzed by electrophoretic mobility shift assay (EMSA), as described in the ‘Materials and Methods’. (a) Titration experiments with (+) and without (-) 2 mM tris(2-carboxyethyl)phosphine hydrochloride (TCEP) C1 and C2 are for the [1/1] and [2/1] Fpg/DNA complexes, respectively (see detailed in the text). (b) Fpg DNA binding concentration-dependence for 2TX and the more efficient TXn inhibitors. A representative EMSA autoradiography with 0.25 nM of Fpg alone (lane no) and 0.5, 2.5, 5, 10, 20, 40, 50, 250, 1000 µM is shown in the upper panel. IC50app^B corresponds to the TXn amount needed to halve the C1 complex formation and was extracted from the dose-response curves (lower panel; Table 1).
# (§4) The DNA binding activity was measured using EMSA [37]. Briefly, 0.1 nM of the 5′-labeled 14-mer [THF:C] (see above) was incubated with the enzyme at 4 °C for 30 min in 25 mM HEPES/NaOH (pH 7.5), 150 mM NaCl, 5% glycerol, 0.1 mg/mL BSA and 8% DMSO. The incubation mixture was then loaded onto a native 10% polyacrylamide gel (Acryl/Bis 19/1) and electrophoresed at 25 V/cm for 90 min at 4 °C. After electrophoresis, the gels were dried and exposed overnight for autoradiography using a Typhoon imager and quantified with ImageQuant software. To evaluate the inhibitor effect of 2TX/TXn on the DNA binding activity of each Fpg/Nei enzyme, we first determined the experimental conditions required to bind 50% of the DNA probes without an inhibitor in the presence of 8% DMSO (limiting enzyme concentration). Under these conditions, we obtained the half-maximal DNA binding 0.25, 7 and 5 nM of Fpg, hNeil1 and mvNei1. We used this limited enzyme concentrations to evaluate the inhibitor effect of 2TX/TXn on the enzyme DNA binding activity. This effect was determined by the addition of the thio-compound in the pre-equilibrium mixture of the enzyme and DNA probe (30 min) and incubated for an additional 30 min at 4 °C. For the best inhibitors of Fpg, a dose-response curve was established from at least three independent experiments and the IC50 was determined (IC50^B, Table 1).
# [7] = molecular target: T5, LlFpg/DNA complex C2 (Lactococcus lactis subsp. cremoris, UniProt P42371); assay: EMSA, Fpg DNA binding to 14-mer [THF:C] duplex, non-specific complex C2 (Fpg/DNA 2/1); conditions: 2 mM TCEP, 6.7-fold molar excess over compound; Figure 3
# T5 construct: made in house; host or cells: E. coli BH540 (fpg defective)
# T5 sequence (P42371 2-273 limits assumed): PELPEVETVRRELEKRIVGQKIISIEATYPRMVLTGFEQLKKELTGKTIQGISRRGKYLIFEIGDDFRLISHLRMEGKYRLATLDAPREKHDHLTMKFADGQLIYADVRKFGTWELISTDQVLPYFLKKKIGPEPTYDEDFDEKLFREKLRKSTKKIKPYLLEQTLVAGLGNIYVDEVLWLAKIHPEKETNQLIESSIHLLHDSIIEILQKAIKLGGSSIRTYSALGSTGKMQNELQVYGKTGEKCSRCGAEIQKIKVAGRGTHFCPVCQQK
# Source text: as §3
# The inhibitor concentrations that induced the loss of the half-maximal binding (IC50app^B) were determined from these curves and are reported in Table 1. IC50app^B compared well with IC50app^A. As observed above for the enzyme activity, strong reducers, such as TCEP, abolished the negative effects of 2TX and TXn on Fpg/DNA complex stability and formation. These findings again indicate that inhibition by thio-compounds essentially relies on the oxidation of the Fpg ZnF (for an example, see experiment with TX19, Figure S4). […] This troubling and unexpected observation led us to evaluate this effect with the TXn small library compounds. To prevent a side effect due to a possible partial reduction by TCEP, we performed EMSA in the presence of a 6.7-fold molar excess of TCEP with respect to 2TX and TXn after complex formation (Figure 3).
# Figure 3 Impact of TXn on the non-specific Fpg/DNA complex C2 stability in highly reducing conditions. EMSA was performed as described in the ‘Material & Methods’, except TCEP was added at a 2 mM final concentration in each binding assay. (a) Representative experiment at 0.3 mM 2TX and more efficient TXn; (b) Dose-response with the best TXn. Upper panel: Representative EMSA experiment with TX10. Lower panel: Dose-response curves with the indicated TXn.
# as §4, with “1). […]” for “1).”
# Rieux et al. Thiopurine derivative-induced Fpg/Nei DNA glycosylase inhibition:
# structural, dynamic and functional insights
# Figure S6. […]
# [8] = 1 mM TCEP (DTT to a lesser extent), Figure 4
# [9] = homogeneous reduced or disulfide form dissolved in 50 mM sodium phosphate, no DMSO stock, read-out: IC50^A (Fpg catalysis), homogeneous redox forms
smiles,measurement,setting,value
O=c1[nH]c2[nH]c(=S)[nH]c(=S)c2[nH]1 [TX16],effect on hNeil1 DNA binding activity,[1],apparent inhibitory effects
same,effect on hNeil1 catalytic activity,"[2]; 0.2 mM compound, Figure 4",apparent inhibitory effects
same,inhibition of hNeil1 DNA binding and catalytic activities in the presence of TCEP,[2]; [8],suppressed
same,IC50,"[2]; catalytic activity at 37 °C, compound stock in DMSO, DHU:G 24-mer, read-out: IC50app^A (Fpg/Nei enzyme catalysis) hNEIL1",21 ± 1 µM
same,effect on mvNei1 catalytic activity,"[3]; 0.2 mM compound, Figure 4",apparent inhibitory effects
same,inhibition of mvNei1 DNA binding and catalytic activities in the presence of TCEP,[3]; [8],suppressed
same,IC50,"[3]; catalytic activity at 37 °C, compound stock in DMSO, DHU:G 24-mer, read-out: IC50app^A (Fpg/Nei enzyme catalysis) mvNEI1",14 ± 1 µM
same,IC50,"[4]; catalytic activity at 37 °C, compound stock (redox mixture) in DMSO, 20 nM 8-oxoG:C 24-mer, 2 nM LlFpg, read-out: IC50app^A (Fpg/Nei enzyme catalysis) LlFpg",41 ± 7 µM
same,effect on mvNei1 DNA binding activity,[5],apparent inhibitory effects
"O=c1[nH]c(=S)[nH]c2[nH]cnc12 [Compound 2TXRed, reference compound]",IC50,[6],> 1000 µM
same,inhibition of Fpg catalytic activity by reduced forms,[4],did not inhibit the enzyme
same,IC50,[4]; [9],> 1000 µM
O=c1[nH]c2nc(SSc3nc4[nH]c(=O)[nH]c4c(=O)[nH]3)[nH]c(=O)c2[nH]1 [TX14Ox],IC50,[6],26 ± 1 µM
same,inhibition of hNeil1 by homogeneous disulfide forms,[2],neither 2TXOx nor TX14Ox inhibited
same,inhibition of mvNei1 by homogeneous disulfide forms,[3],neither 2TXOx nor TX14Ox inhibited
same,IC50,[4]; [9],2.7 µM
COc1nc(C(F)(F)F)nc2[nH]cnc12 [TX10],destabilization of complex C2 in highly reducing conditions,[7],among the best C2 destabilizers
Cc1nc(S)c2[nH]cnc2n1 [TX4],effect on Fpg 8-oxoG-DNA glycosylase/AP lyase activity (screening),"[4]; 40 µM compound, Figure 1a",drastically decreased the inhibitory effect
O=c1[nH]c2[nH]c(=S)[nH]c(=O)c2[nH]1 [TX14Red],IC50,[6],> 1000 µM
same,inhibition of Fpg catalytic activity by reduced forms,[4],did not inhibit the enzyme
same,IC50,[4]; [9],> 1000 µM
O=c1[nH]c(SSc2nc3[nH]cnc3c(=O)[nH]2)nc2[nH]cnc12 [Compound 2TXOx],IC50,[6],34 ± 2 µM
same,inhibition of hNeil1 by homogeneous disulfide forms,[2],neither 2TXOx nor TX14Ox inhibited
same,inhibition of mvNei1 by homogeneous disulfide forms,[3],neither 2TXOx nor TX14Ox inhibited
same,IC50,[4]; [9],5.5 µM
CNc1nc(C(F)(F)F)nc2[nH]cnc12 [TX11],destabilization of complex C2 in highly reducing conditions,[7],among the best C2 destabilizers
